Laboratory results taken from publication PMC8588536, “Iridal-Type Triterpenoids Displaying Human Neutrophil Elastase Inhibition and Anti-Inflammatory Effects from Belamcanda chinensis” (Molecules, 2021).
Entries after “also recorded” stand apart in the source; their conditions may differ.

Experiments:
[1] = target: T1, Human neutrophil elastase (HNE) (Homo sapiens, UniProt P08246); assay: Fluorescence quenching binding affinity to HNE; conditions: inhibitor 7.8–31.2 µM; for Kd: read-out: KA (association constant of the complex of enzyme and quencher) (converted); for KSV (Stern-Volmer quenching constant): λEx 260 nm, λEm 280–400 nm
T1 construct: purchased Sigma-Aldrich
T1 sequence (P08246 30-267): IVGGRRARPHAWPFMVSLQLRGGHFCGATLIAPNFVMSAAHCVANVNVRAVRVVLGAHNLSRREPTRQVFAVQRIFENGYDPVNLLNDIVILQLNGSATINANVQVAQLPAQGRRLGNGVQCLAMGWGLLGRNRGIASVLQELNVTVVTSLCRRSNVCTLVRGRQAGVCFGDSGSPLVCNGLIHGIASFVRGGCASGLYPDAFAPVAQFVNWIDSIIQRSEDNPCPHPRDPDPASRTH
Description: To measure fluorescence from the HNE enzyme, 10 μL of 0.01 unit/mL enzyme solution with 180 μL of Tris-HCl buffer (0.02 mM) was accurately added into the 96-well black immunoplates. Then, 10 μL of incremental concentrations (7.8–31.2 μΜ) of inhibitors were added into each well. All fluorescence spectra were measured from 280 to 400 nm with emission slits regulated to 2.0 nm, and the excitation wavelength was 260 nm. The Stern–Volmer quenching constant (KSV) was calculated using Equation (5). All experiments were conducted in triplicate, and the mean values were calculated. (5) […]=1+KSV[Q], where F0 and F are the fluorescence intensities in the absence and presence of quencher (Q). KSV is the Stern–Volmer quenching constant [LM^−1]. For static quenching, the correlation between the fluorescence intensity and the concentration of quencher for the series of reactions can be estimated by Equation (6). (6) log[(F0−F)/F]=logKA+nlog[Q]f.
F0 and F are the fluorescence intensities in the absence and presence of inhibitor; KA is the binding constant; n is the number of binding sites of the enzyme; Qf is the concentration of inhibitor.

[2] = tested on: IL-1β in LPS-stimulated RAW264.7 cells; assay: IL-1β concentration by ELISA; type: cell-based, mouse; conditions: 1 or 3 µg/mL 2 h prior to LPS 1 µg/mL for 16 h; n = 6, p < 0.05
Description: (§1) RAW264.7 cell (2 × 10^5 cells/well) were cultured in a 6-well plate for 24 h and treated with compounds (1 or 3 µg/mL) 2 h prior to LPS treatment, followed by LPS (1 µg/mL) for 16 h. The concentration of pro-inflammatory cytokines in the collected supernatant was quantified using an ELISA kit (R&D system, Minneapolis, MN, USA) according to the manufacturer’s instructions. Briefly, 50 μL of assay diluent, sample, and standards were added to the ELISA well plate, which were pre-coated with anti-mouse IL-1β and TNF-α antibody. The plates were then covered with adhesive strip, agitated, and incubated for 2 h at room temperature. The ELISA well-plate was washed five times with a wash buffer, then 100 μL of mouse IL-1β and TNF-α conjugates was added and incubated at room temperature for 2 h. The plate was washed five times, 100 μL of substrate solution was added to each well, and incubated for 30 min in the dark. The reaction was quenched by the addition of 100 μL stop solution to each well, and the absorbance was read 450 nm/570 nm with an ELISA reader (Molecular Devices, Sunnyvale, CA, USA).

[3] = tested on: TNF-α in LPS-stimulated RAW264.7 cells; assay: TNF-α concentration by ELISA; type: cell-based, mouse; conditions: 1 or 3 µg/mL 2 h prior to LPS 1 µg/mL for 16 h; n = 6, p < 0.05
Description: as §1

[4] = tested on: LPS-stimulated RAW264.7 cells; assay: LPS-induced morphological changes (macrophage activation); type: cell-based, mouse; conditions: pre-treatment 1 or 3 µg/mL
Description: The mouse macrophage cell line RAW264.7 was obtained from the American Type Culture Collection (ATCC, Manassas, VA, USA). The cells were cultured in DMEM supplemented with 10% fetal bovine serum (FBS), penicillin (100 U/mL), and streptomycin (100 μg/mL) at 37 °C with 5% CO2. The medium was replaced every 2 days. After treatment with chemicals, the cell morphological changes were observed under a microscope and images are captured before cell viability assay.

[5] = tested on: iNOS mRNA in LPS-stimulated RAW264.7 cells; assay: iNOS mRNA expression by RT-PCR; type: cell-based, mouse; conditions: 1 or 3 µg/mL, LPS 1 µg/mL; n = 5, p < 0.05
Description: Total RNA was isolated from cultured RAW264.7 cells using TRIzol reagent (Ambion®, Carlsbad, CA, USA) according to the manufacturer’s instructions. First strand cDNA was synthesized from the total RNA (3 μg) using oligo dT (DiaStar RT Kit, SolGent, Daejeon, Korea) and was used as a template for PCR amplification with G-Taq polymerase (Cosmogenetech, Seoul, Korea). The first-strand cDNA was quantified using a spectrophotometer (NanoDrop® ND-1000, NanoDrop Technologies, Wilmington, […], USA). The quantified cDNA was used as a template. PCR assay was performed with specific primers for inducible nitric oxide (iNOS), IL-1β, and TNF-α. The PCR steps included initial denaturation at 94 °C for 5 min, then 28 cycles at 94 °C for 30 s, 57 °C for 30 s, and 72 °C for 30 s, and a final extension step at 72 °C for 10 min. The amplified PCR products were separated in 1.5% agarose gel, and the gel was stained with ethidium bromide. The bands were visualized using the iBright^TM CL1500 imaging system (Thermo Scientific Fisher/Life Technologies Holdings Pte Ltd., Singapore). The DNA fragments were directly sequenced with the ABI PRISM® 3100-Avant Genetic Analyzer (Applied Biosystems, Carlsbad, CA, USA).

[6] = tested on: NO production in LPS-stimulated RAW264.7 cells; assay: Nitrite levels (NO production), Griess method; type: cell-based, mouse; conditions: 1 or 3 µg/mL 2 h prior to LPS 1 µg/mL for 16 h; p < 0.05
Description: Nitrite levels were determined using the Griess method, as described previously (Jeong et al., 2016). Briefly, RAW264.7 cells (5 × 10^4 cells/well) were cultured in a 24-well plate. The cells were pretreated with triterpenoids (1 or 3 µg/mL) 2 h prior to lipopolysaccharides (LPS, 1 µg/mL) treatment for 16 h. Supernatants were collected and centrifuged at 2451× g for 10 min. The (50 μL) of supernatants were mixed with equal volumes of Griess reagent (1% sulfanilamide, 0.1% n-l-naphthylethy-lenediamine dihydrochloride, and 2% phosphoric acid), and incubated for 10 min. The optical density was measured at 550 nm, and the nitrite levels were calculated from a standard curve generated from sodium nitrite.

Structure (SMILES) | n (number of binding sites of the enzyme) [1] | Kd [1] | KSV (Stern-Volmer quenching constant) [1] | LPS-upregulated IL-1β concentration [2] | LPS-upregulated TNF-α concentration [3] | effect on LPS-induced morphological changes [4] | LPS-induced iNOS mRNA upregulation [5] | LPS-induced NO production [6]
CC(C)=CCC/C(C)=C/C[C@@H](O)/C(C)=C/CC[C@@]1(C)[C@H](CCCO)/C(=C(/C)C=O)CC[C@]1(C)O [Compound 1, isoiridogermanal] | 1.0039 | 24.3 µM | 41660 L/mol | noticeably decreased | noticeably decreased | ameliorated | significantly reduced | significantly reduced
CC(C)=CCCC(C)=CCC(O)C(C)=CCCC1(C)C(CCCO)C(=C(C)C=O)CCC1(C)O (stereo not shown) [Compound 2, iridobelamal A] | 0.9734 | 50.3 µM | 18160 L/mol | noticeably decreased | noticeably decreased | ameliorated | significantly reduced | significantly reduced; also recorded: dose-dependent inhibition
